Holding throughout (experiment): antifungal disc diffusion assay
Holding throughout (assay type): cell-based

The test system of one assay is Alternaria solani. As to conditions: filamentous fungus Alternaria solani. The procedure: (§1) The antifungal activity of the compounds may be detected in an antifungal assay employing disc diffusion methods against a panel of representative yeasts, filamentous fungi (molds) and bacteria.
(§2) For carrying out the assay, seeded assay plates are prepared in the following manner according to the type of assay strain.
(§3) Inocula for filamentous fungi are prepared by scraping the surface of stock plates maintained on potato dextrose agar with a moistened sterile dacron swab. The spores and mycelia are then suspended in 10 milliliters of sterile potato dextrose broth and adjusted to 70 percent transmission at 660 nm.
(§4) The seeded agar media thus prepared are dispensed into Petri dishes for assays (11 milliliters per dish).
(§5) The samples to be tested for production of antifungal agent are applied to 6.2 mm. filter paper discs (25 microliter/disc) and air dried at 24° C. When the sample to be tested is crude broth, it may be centrifuged prior to application. The discs bearing the material to be tested are then applied employing sterile conditions to be seeded assay plates and the sample rewet with 25 percent sterile aqueous dimethysulfoxide (25 μl/disc). The assay plates are then incubated at either 28° C. or 37° C. for 24 hours.
(§6) Following incubation, the inhibition zones are measured and recorded. The measurements are made from the extreme edge where growth differs from the background zone. […]

The subject of another assay is Ceratocystis ulmi. As to conditions: filamentous fungus Ceratocystis ulmi. The procedure: as §1, §2, §3, §4, §5, §6
The subject of another assay is Candida neoformans. On the procedure: as §1, §2
(§7) Inocula for yeasts and Streptomyces strains are prepared from overnight broth cultures then diluted into potato dextrose […] to a final concentration of either 40 percent or 70 percent transmission at 660 nm.
as §4, §5
(§8) Following incubation, the inhibition zones are measured and recorded. The measurements are made from the extreme edge where growth differs from the background zone. The zones are noted as to appearance as fuzzy edge and clear center, hazy throughout, slightly hazy, very hazy or ringed.

A further assay relates to Candida parapsilosis. On the procedure:
as §1, §2, §7, §4, §5, §8

Another assay has as its system Candida pseudotropicalis. On the procedure:
as §1, §2, §7, §4, §5, §8

The subject of a further assay is Candida albicans. The procedure: as §1, §2, §7
(§9) For strains of Candida albicans and Saccharomyces cerevisiae, sterile saline is employed in place of potato dextrose broth. Assay plates are prepared by diluting the inoculum into appropriate molten agar medium, cooled to 45° C. to obtain a final concentration of 4 percent.
as §4, §5, §8

In the next assay the test system is Cryptococous neoformans. The procedure:
as §1, §2, §7, §4, §5, §8

Another assay deals with Saccharomyces cerevisiae. On the procedure:
as §1, §2, §7, §9, §4, §5, §8

On to `CCCCCCC(=O)CCCCCC/C=C/C(O)C(O)C(O)C(N)(CO)C(=O)O` (stereo not drawn) [Compound IA], for which the antifungal activity result was “very strong antifungal activity” in the assay with Alternaria solani; “very strong antifungal activity” in the assay on Ceratocystis ulmi; “active” in the assay with Candida neoformans; “active” with Candida parapsilosis; “active” in the assay on Candida pseudotropicalis; “active” with Candida albicans.
Regarding `CCCCCCC(=O)CCCCCC/C=C/C(O)C(O)C(O)C(C)(N)C(=O)O` (stereo not drawn) [Compound IB], the antifungal activity entry in the assay with Cryptococous neoformans, with Saccharomyces cerevisiae and with Candida albicans was “active” throughout.

(Values after US5233062A, “Antibiotic eicosenoic acids” (Merck & Co., Inc., priority 1992, dated 1993).)
